# US20070191493A1, “Use of n-alkanols as activators of the cftr channel” (priority 2003, published 2007)
# Like-named read-outs stand apart in the source and are kept apart here.
# Columns and labels:
# CHO-CFTR(-) cells = assay: 125I iodide efflux in CHO-CFTR(-) control cells that do not express CFTR; type: cell-based, Chinese hamster; conditions: octan-1-ol 0.1 to 5 mM, FSK 5 μM, A23187 2 μM
# [1] = target: T1, human CFTR channel endogenously expressed in Calu-3 (Homo sapiens, UniProt P13569); assay: iodide efflux in Calu-3 human bronchial epithelial cells; type: cell-based; conditions: for EC50: Calu-3 cells, read-out: half-effect concentration (EC50)
# T1 construct: human pulmonary epithelial cells endogenously expressing the CFTR channel; host or cells: Calu-3 human pulmonary epithelial cells
# Protocol: The CFTR studies are also carried out on Calu-3 cells (ATCC No. HTB-55), which are human pulmonary epithelial cells endogenously expressing the CFTR channel. These cells are cultured under the same culture conditions as the CHO cells. The study of the mutated CFTR channel is carried out on JME/CF15 cells, which are epithelial cells extracted from respiratory airways of patients suffering from cystic fibrosis (homozygous ΔF508) (Jefferson et al., 1990). These cells therefore express the ΔF508 mutated CFTR channel. These cells are cultured under the same conditions as above, but the culture medium is supplemented with a hormone mixture containing: adenine (180 μM), insulin (5 μg/ml), transferrin (5 μg/ml), hydrocortisone (1.1 μM), triiodothyronine (2 nM), epinephrine (5.5 μM), epidermal growth factor (1.64 nM).
# This technique makes it possible to follow the kinetics of exit of the ^125I radioactive iodide. The cells are cultured in 24-well plates with a dilution to 1/10 after passage. On the fourth day of culture, the drugs to be tested are dissolved in solution according to the desired concentration, at 37° C., in medium B, at pH 7.4, containing, in mM: 137 NaCl, 5.36 KCl, 0.8 mM MgCl2, 1.8 mM CaCl2, 5.5 glucose and 10 HEPES-NaOH. The wells are washed 4 times with 500 μl of medium B. The solution is subsequently replaced with 500 μl of loading solution containing 1 μM KI and 0.5 μCi of ^125INa/ml for 30 min. The kinetics of exit of ^125I are determined after having eliminated the loading solution and washed the wells 4 times with 500 μl of medium B. For the ^125I exit kinetics, 500 μl of medium B containing or not containing the molecules to be tested are incubated for 30 sec in the wells and recovered in a hemolysis tube, so as to be replaced with 500 μl of medium B containing or not containing the molecules to be tested. The operation is repeated every 30 s for 2 to 6 min. At the end of the efflux, the intracellular ions are extracted by adding 1 ml of trichloroacetic acid (7.5%) to the cell layer. All the samples are counted in a gamma counter (Kontron). The precipitated proteins are solubilized in 0.1N NaOH and quantified using a calorimetric test.
# The tracer contained in the cell layer at the beginning of the efflux is calculated as the sum of the samples and of the extracts counted. The efflux curves are constructed by expressing the percentage of the content remaining in the cell layer (I %) with respect to time. The stimulated or nonstimulated efflux rate constants (k, min^−1) are determined by smoothing the efflux curves to a monoexponential function I %=100*exp(−kt) using a linear regression of the neperian logarithm of the data, k is used to calculate the iodide released into the medium with respect to time. The hypothesis is made that, in the presence of a stimulator, the efflux is the sum of two iodide effluxes occurring in parallel: a basal efflux and a stimulated efflux characterized, respectively, by the constants kb and ks. The total net efflux is then described by the equation It^%=100*(1−exp(−ktt)) where kt is the sum of kb and ks. Finally, ks calculated as kt−kb is used to establish a dose-response relationship for antagonists. The data is expressed as means ±SD, and the t-test is used to determine the significances. […] Y begins at the basal level and progresses to the plateau (Ymax), X is the concentration and the half-effect values (EC are calculated using GraphPad Prism v3.0 (GraphPad software)).
# intracellular cAMP level = assay: total intracellular cAMP assay in CHO-CFTR(+) cells; type: cell-based, Chinese hamster; conditions: 5 min, FSK 1 or 5 μM, alcohols 1 mM
# Protocol: The CHO cells are cultured for four days in a 24-well culture plate. On the fourth day of culture, each well is rinsed twice with 500 μl of medium B, and 500 μl of this buffer containing the molecule to be tested are added to each well. After incubation at 37° C. for 5 min, the reaction is stopped by adding a cell lysis buffer. The cell lysis is verified with Trypan blue. The amount of cAMP contained in the cells is determined using the Enzyme Immuno Assay kit (Amersham Biotechnology). The cAMP level is expressed in pmol/well ±SD.
# T1 sequence (P13569 whole entry): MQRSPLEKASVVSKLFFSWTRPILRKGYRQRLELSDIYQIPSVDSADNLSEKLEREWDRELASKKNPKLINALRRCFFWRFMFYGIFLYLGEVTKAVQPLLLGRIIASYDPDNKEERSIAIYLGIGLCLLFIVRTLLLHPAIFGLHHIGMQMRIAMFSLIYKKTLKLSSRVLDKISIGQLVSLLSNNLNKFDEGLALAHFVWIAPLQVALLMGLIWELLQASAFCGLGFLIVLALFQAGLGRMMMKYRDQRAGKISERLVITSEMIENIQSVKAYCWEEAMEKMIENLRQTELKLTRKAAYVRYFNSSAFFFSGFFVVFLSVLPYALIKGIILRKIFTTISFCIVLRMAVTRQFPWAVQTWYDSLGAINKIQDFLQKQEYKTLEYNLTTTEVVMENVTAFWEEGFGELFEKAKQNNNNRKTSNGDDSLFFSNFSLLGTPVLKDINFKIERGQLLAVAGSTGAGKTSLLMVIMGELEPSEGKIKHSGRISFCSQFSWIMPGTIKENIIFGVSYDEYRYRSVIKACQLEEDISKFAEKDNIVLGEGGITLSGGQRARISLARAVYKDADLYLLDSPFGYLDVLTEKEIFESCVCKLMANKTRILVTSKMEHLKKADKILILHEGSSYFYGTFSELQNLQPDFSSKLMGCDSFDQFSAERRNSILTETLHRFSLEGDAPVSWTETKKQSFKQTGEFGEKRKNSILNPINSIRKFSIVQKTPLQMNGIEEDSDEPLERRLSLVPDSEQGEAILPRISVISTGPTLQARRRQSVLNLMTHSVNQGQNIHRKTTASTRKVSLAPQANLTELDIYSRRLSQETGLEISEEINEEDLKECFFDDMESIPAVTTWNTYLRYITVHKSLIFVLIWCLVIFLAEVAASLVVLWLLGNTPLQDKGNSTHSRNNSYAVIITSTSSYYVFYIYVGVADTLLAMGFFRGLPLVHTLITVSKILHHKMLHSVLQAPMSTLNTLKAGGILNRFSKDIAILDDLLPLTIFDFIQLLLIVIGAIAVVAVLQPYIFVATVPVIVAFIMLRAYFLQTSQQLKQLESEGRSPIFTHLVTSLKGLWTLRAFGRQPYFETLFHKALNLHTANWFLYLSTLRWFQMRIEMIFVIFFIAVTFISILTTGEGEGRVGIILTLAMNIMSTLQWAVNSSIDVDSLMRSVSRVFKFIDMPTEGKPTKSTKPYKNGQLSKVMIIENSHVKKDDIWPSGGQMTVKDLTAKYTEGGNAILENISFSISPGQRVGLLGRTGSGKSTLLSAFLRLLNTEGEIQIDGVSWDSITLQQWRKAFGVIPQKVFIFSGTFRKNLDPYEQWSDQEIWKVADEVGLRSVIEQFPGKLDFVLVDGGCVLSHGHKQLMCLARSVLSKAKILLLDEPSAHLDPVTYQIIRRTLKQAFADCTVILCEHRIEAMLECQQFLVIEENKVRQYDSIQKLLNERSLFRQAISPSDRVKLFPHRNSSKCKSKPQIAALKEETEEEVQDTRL
smiles,measurement,setting,value
CCCCCCCCO [octan-1-ol],effect on basal level of 125I efflux in cells not expressing CFTR,CHO-CFTR(-) cells,do not significantly modify the basal level
same,EC50,[1]; in the absence of FSK,1140 µM
same,EC50,[1]; in the presence of FSK (1 μM),512 µM
same,"activation of iodide efflux in Calu-3 cells, in words","[1]; octan-1-ol 0.1 to 10 mM, FSK 1 μM",activates the exit of iodide
same,effect on intracellular cAMP level,intracellular cAMP level,"neither octan-1-ol, hexan-1-ol or ethanol modifies the basal cAMP level"
